{"source": "patent US12491170B2", "about": "“Stable treprostinil prodrugs” (United Therapeutics Corporation, priority 2020, dated 2025)", "key": {"[1]": {"assay": "Stability in cryopreserved hepatocytes, dog", "settings": "for AUC: dog"}, "[2]": {"settings": "rat"}, "[3]": {"assay": "Stability in cryopreserved hepatocytes, human", "settings": "for AUC: human"}, "[4]": {"assay": "Stability in human subcutaneous skin homogenate", "settings": "for AUC: human"}, "[5]": {"assay": "Stability in liver microsomes, rat"}, "[6]": {"assay": "Stability in cryopreserved hepatocytes, rat", "settings": "for AUC: rat"}, "[7]": {"settings": "dog"}, "[8]": {"assay": "Stability in liver microsomes, dog"}, "[9]": {"assay": "Stability in liver microsomes, human", "settings": "for AUC: human"}}, "note": "Where two headings read alike, the source gives them in different places."}
{"molecule": "CCCCCC(CCC1C(O)CC2Cc3c(cccc3OCC(=O)O)CC21)OC(=O)C1CCCN1", "note": "(stereo not drawn) [XXXVI]", "values": [{"measurement": "Trep Concentration (μM) 0 min", "setting": "[1]", "value": 0, "unit": "µM"}, {"measurement": "Trep Concentration (μM) 15 min", "setting": "[1]", "value": 0.229, "unit": "µM"}, {"measurement": "Trep Concentration (μM) 30 min", "setting": "[1]", "value": 0.276, "unit": "µM"}, {"measurement": "Trep Concentration (μM) 60 min", "setting": "[1]", "value": 0.264, "unit": "µM"}, {"measurement": "Trep Concentration (μM) 120 min", "setting": "[1]", "value": 0.279, "unit": "µM"}, {"measurement": "AUC", "setting": "[1]", "value": 29.90, "unit": "µmol·min/L"}, {"measurement": "AUC", "setting": "[2]", "value": 20.24, "unit": "µmol·min/L"}, {"measurement": "Trep Concentration (μM) 0 min", "setting": "[3]", "value": 0, "unit": "µM"}, {"measurement": "Trep Concentration (μM) 15 min", "setting": "[3]", "value": 0.502, "unit": "µM"}, {"measurement": "Trep Concentration (μM) 30 min", "setting": "[3]", "value": 0.512, "unit": "µM"}, {"measurement": "Trep Concentration (μM) 60 min", "setting": "[3]", "value": 0.45, "unit": "µM"}, {"measurement": "Trep Concentration (μM) 120 min", "setting": "[3]", "value": 0.482, "unit": "µM"}, {"measurement": "AUC", "setting": "[3]", "value": 53.76, "unit": "µmol·min/L"}, {"measurement": "Trep Concentration 0 min", "setting": "[4]", "value": 0, "unit": "µM"}, {"measurement": "Trep Concentration 30 min", "setting": "[4]", "value": 0.328, "unit": "µM"}, {"measurement": "Trep Concentration 60 min", "setting": "[4]", "value": 0.559, "unit": "µM"}, {"measurement": "Trep Concentration 120 min", "setting": "[4]", "value": 0.852, "unit": "µM"}, {"measurement": "AUC", "setting": "[4]", "value": 60.56, "unit": "µmol·min/L"}, {"measurement": "Trep Concentration 0 min", "setting": "[5]", "value": 0.154, "unit": "µM"}, {"measurement": "Trep Concentration 10 min", "setting": "[5]", "value": 0.242, "unit": "µM"}, {"measurement": "Trep Concentration 20 min", "setting": "[5]", "value": 0.326, "unit": "µM"}, {"measurement": "Trep Concentration 30 min", "setting": "[5]", "value": 0.342, "unit": "µM"}, {"measurement": "Trep Concentration 60 min", "setting": "[5]", "value": 0.463, "unit": "µM"}, {"measurement": "Trep Concentration (μM) 0 min", "setting": "[6]", "value": 0.00925, "unit": "µM"}, {"measurement": "Trep Concentration (μM) 15 min", "setting": "[6]", "value": 0.494, "unit": "µM"}, {"measurement": "Trep Concentration (μM) 30 min", "setting": "[6]", "value": 0.511, "unit": "µM"}, {"measurement": "Trep Concentration (μM) 60 min", "setting": "[6]", "value": 0.505, "unit": "µM"}, {"measurement": "Trep Concentration (μM) 120 min", "setting": "[6]", "value": 0.499, "unit": "µM"}, {"measurement": "AUC", "setting": "[6]", "value": 56.67, "unit": "µmol·min/L"}, {"measurement": "AUC", "setting": "[7]", "value": 19.90, "unit": "µmol·min/L"}, {"measurement": "Trep Concentration 0 min", "setting": "[8]", "value": 0.102, "unit": "µM"}, {"measurement": "Trep Concentration 10 min", "setting": "[8]", "value": 0.199, "unit": "µM"}, {"measurement": "Trep Concentration 20 min", "setting": "[8]", "value": 0.309, "unit": "µM"}, {"measurement": "Trep Concentration 30 min", "setting": "[8]", "value": 0.353, "unit": "µM"}, {"measurement": "Trep Concentration 60 min", "setting": "[8]", "value": 0.483, "unit": "µM"}, {"measurement": "Trep Concentration 0 min", "setting": "[9]", "value": 0.443, "unit": "µM"}, {"measurement": "Trep Concentration 10 min", "setting": "[9]", "value": 0.502, "unit": "µM"}, {"measurement": "Trep Concentration 20 min", "setting": "[9]", "value": 0.478, "unit": "µM"}, {"measurement": "Trep Concentration 30 min", "setting": "[9]", "value": 0.379, "unit": "µM"}, {"measurement": "Trep Concentration 60 min", "setting": "[9]", "value": 0.316, "unit": "µM"}, {"measurement": "AUC", "setting": "[9]", "value": 24.34, "unit": "µmol·min/L"}]}
{"molecule": "CCCCCC(CCC1C(O)CC2Cc3c(cccc3OCC(=O)O)CC21)OC(=O)CO", "note": "(stereo not drawn) [XLIV]", "values": [{"measurement": "Trep Concentration (μM) 0 min", "setting": "[1]", "value": 0.0501, "unit": "µM"}, {"measurement": "Trep Concentration (μM) 15 min", "setting": "[1]", "value": 0.587, "unit": "µM"}, {"measurement": "Trep Concentration (μM) 30 min", "setting": "[1]", "value": 0.545, "unit": "µM"}, {"measurement": "Trep Concentration (μM) 60 min", "setting": "[1]", "value": 0.475, "unit": "µM"}, {"measurement": "Trep Concentration (μM) 120 min", "setting": "[1]", "value": 0.404, "unit": "µM"}, {"measurement": "AUC", "setting": "[1]", "value": 54.94, "unit": "µmol·min/L"}, {"measurement": "AUC", "setting": "[2]", "value": 11.30, "unit": "µmol·min/L"}, {"measurement": "Trep Concentration (μM) 0 min", "setting": "[3]", "value": 0.0377, "unit": "µM"}, {"measurement": "Trep Concentration (μM) 15 min", "setting": "[3]", "value": 0.406, "unit": "µM"}, {"measurement": "Trep Concentration (μM) 30 min", "setting": "[3]", "value": 0.534, "unit": "µM"}, {"measurement": "Trep Concentration (μM) 60 min", "setting": "[3]", "value": 0.553, "unit": "µM"}, {"measurement": "Trep Concentration (μM) 120 min", "setting": "[3]", "value": 0.506, "unit": "µM"}, {"measurement": "AUC", "setting": "[3]", "value": 58.45, "unit": "µmol·min/L"}, {"measurement": "Trep Concentration 0 min", "setting": "[4]", "value": 0, "unit": "µM"}, {"measurement": "Trep Concentration 30 min", "setting": "[4]", "value": 0.0277, "unit": "µM"}, {"measurement": "Trep Concentration 60 min", "setting": "[4]", "value": 0.0597, "unit": "µM"}, {"measurement": "Trep Concentration 120 min", "setting": "[4]", "value": 0.106, "unit": "µM"}, {"measurement": "AUC", "setting": "[4]", "value": 6.70, "unit": "µmol·min/L"}, {"measurement": "Trep Concentration 0 min", "setting": "[5]", "value": 0.0772, "unit": "µM"}, {"measurement": "Trep Concentration 10 min", "setting": "[5]", "value": 0.114, "unit": "µM"}, {"measurement": "Trep Concentration 20 min", "setting": "[5]", "value": 0.157, "unit": "µM"}, {"measurement": "Trep Concentration 30 min", "setting": "[5]", "value": 0.197, "unit": "µM"}, {"measurement": "Trep Concentration 60 min", "setting": "[5]", "value": 0.284, "unit": "µM"}, {"measurement": "Trep Concentration (μM) 0 min", "setting": "[6]", "value": 0.0352, "unit": "µM"}, {"measurement": "Trep Concentration (μM) 15 min", "setting": "[6]", "value": 0.186, "unit": "µM"}, {"measurement": "Trep Concentration (μM) 30 min", "setting": "[6]", "value": 0.307, "unit": "µM"}, {"measurement": "Trep Concentration (μM) 60 min", "setting": "[6]", "value": 0.393, "unit": "µM"}, {"measurement": "Trep Concentration (μM) 120 min", "setting": "[6]", "value": 0.514, "unit": "µM"}, {"measurement": "AUC", "setting": "[6]", "value": 43.07, "unit": "µmol·min/L"}, {"measurement": "AUC", "setting": "[7]", "value": 53.05, "unit": "µmol·min/L"}, {"measurement": "Trep Concentration 0 min", "setting": "[8]", "value": 0.913, "unit": "µM"}, {"measurement": "Trep Concentration 10 min", "setting": "[8]", "value": 0.884, "unit": "µM"}, {"measurement": "Trep Concentration 20 min", "setting": "[8]", "value": 0.828, "unit": "µM"}, {"measurement": "Trep Concentration 30 min", "setting": "[8]", "value": 0.894, "unit": "µM"}, {"measurement": "Trep Concentration 60 min", "setting": "[8]", "value": 0.899, "unit": "µM"}, {"measurement": "Trep Concentration 0 min", "setting": "[9]", "value": 0.624, "unit": "µM"}, {"measurement": "Trep Concentration 10 min", "setting": "[9]", "value": 0.632, "unit": "µM"}, {"measurement": "Trep Concentration 20 min", "setting": "[9]", "value": 0.549, "unit": "µM"}, {"measurement": "Trep Concentration 30 min", "setting": "[9]", "value": 0.52, "unit": "µM"}, {"measurement": "Trep Concentration 60 min", "setting": "[9]", "value": 0.307, "unit": "µM"}, {"measurement": "AUC", "setting": "[9]", "value": 29.94, "unit": "µmol·min/L"}]}
{"molecule": "CCCCCC(CCC1C(O)CC2Cc3c(cccc3OCC(=O)O)CC21)OC(=O)NCC(=O)O", "note": "(stereo not drawn) [XXXVIII]", "values": [{"measurement": "AUC", "setting": "[2]", "value": 0.00, "unit": "µmol·min/L"}, {"measurement": "Trep Concentration 0 min", "setting": "[4]", "value": 0, "unit": "µM"}, {"measurement": "Trep Concentration 30 min", "setting": "[4]", "value": 0, "unit": "µM"}, {"measurement": "Trep Concentration 60 min", "setting": "[4]", "value": 0, "unit": "µM"}, {"measurement": "Trep Concentration 120 min", "setting": "[4]", "value": 0, "unit": "µM"}, {"measurement": "AUC", "setting": "[4]", "value": 0.00, "unit": "µmol·min/L"}, {"measurement": "Trep Concentration 0 min", "setting": "[5]", "value": 0, "unit": "µM"}, {"measurement": "Trep Concentration 10 min", "setting": "[5]", "value": 0, "unit": "µM"}, {"measurement": "Trep Concentration 20 min", "setting": "[5]", "value": 0, "unit": "µM"}, {"measurement": "Trep Concentration 30 min", "setting": "[5]", "value": 0, "unit": "µM"}, {"measurement": "Trep Concentration 60 min", "setting": "[5]", "value": 0, "unit": "µM"}, {"measurement": "AUC", "setting": "[7]", "value": 0.00, "unit": "µmol·min/L"}, {"measurement": "Trep Concentration 0 min", "setting": "[8]", "value": 0, "unit": "µM"}, {"measurement": "Trep Concentration 10 min", "setting": "[8]", "value": 0, "unit": "µM"}, {"measurement": "Trep Concentration 20 min", "setting": "[8]", "value": 0, "unit": "µM"}, {"measurement": "Trep Concentration 30 min", "setting": "[8]", "value": 0, "unit": "µM"}, {"measurement": "Trep Concentration 60 min", "setting": "[8]", "value": 0, "unit": "µM"}, {"measurement": "Trep Concentration 0 min", "setting": "[9]", "value": 0, "unit": "µM"}, {"measurement": "Trep Concentration 10 min", "setting": "[9]", "value": 0, "unit": "µM"}, {"measurement": "Trep Concentration 20 min", "setting": "[9]", "value": 0, "unit": "µM"}, {"measurement": "Trep Concentration 30 min", "setting": "[9]", "value": 0, "unit": "µM"}, {"measurement": "Trep Concentration 60 min", "setting": "[9]", "value": 0, "unit": "µM"}, {"measurement": "AUC", "setting": "[9]", "value": 0.00, "unit": "µmol·min/L"}]}
